Measurements as given in US11203601B2, “Tricyclic compounds as glycogen synthase kinase 3 (GSK3) inhibitors and uses thereof” (The Broad Institute, Inc., priority 2017, dated 2021).
In brackets after ≈: the same amount, converted by molar mass. Where two headings read alike, the source gives them in different places.

What was measured:
Plasma stability, mouse = assay type: in vitro ADME, mouse (CD-1)
Protocol: (§1) Stability of compound in plasma was tested in duplicate by incubating compound at 5 μM for 5 hours at 37° C. Compound level at 5 hours was compared to level at 0 hours, and percent remaining was calculated. Binding to plasma proteins was tested in duplicate by incubating compound in plasma at 5 μM for 5 hours at 37° C. in the Rapid Equilibrium Dialysis (RED) Device. Compound level in plasma compartment was compared to compound level in buffer compartment to calculate percent bound. Order by selecting Plasma Stability and Plasma Protein Binding in Prometheus, checking boxes for desired species.
(§2) Available species: human, mouse (CD-1), and rat (Sprague-Dawley). Compound requirements: 15 μL of a 10 mM DMSO solution. Incubation time: 5 hours at 37° C. Test Concentration: 5 μM.

[1] = Liver microsomal stability, mouse; assay type: in vitro ADME, mouse (CD-1)
Protocol: (§3) Stability of compound in liver microsomes was tested in duplicate by incubating compound at 1 μM for 60 minutes at 37° C. Compound level at 60 minutes was compared to level at 0 minutes, and percent remaining was calculated. Order by selecting Microsomal Stability in Prometheus, checking boxes for desired species.
(§4) Available species: human, mouse (CD-1), and rat (Sprague-Dawley). Compound requirements: 5 μL of a 10 mM DMSO solution. Incubation time: 60 minutes at 37° C. Test Concentration: 1 μM.
(§5) Microsomes with NADPH without compound-matrix interference. Microsomes plus compound without NADPH-non-enzymatic instability.

[2] = Plasma protein binding (RED), human; assay type: in vitro ADME; conditions: 5 hours at 37° C., read-out: Plasma Protein Binding (Human, % bound) (converted)
Protocol: as §1, §2

[3] = Plasma protein binding (RED), mouse; assay type: in vitro ADME, mouse (CD-1); conditions: CD-1, 5 hours at 37° C., read-out: Plasma Protein Binding (Mouse, % bound) (converted)
[4] = Liver microsomal stability, human; assay type: in vitro ADME
Protocol: as §3, §4, §5

Solubility in PBS = conditions: 23 °C, aqueous buffer, thermodynamic from solid
Protocol: (§6) Solubility of compound was tested in triplicate by diluting a 10 mM DMSO solution with PBS. Maximum concentration of compound in solution was 100 μM.
(§7) Solubility of compound was tested in triplicate by drying down a 10 mM DMSO solution and then attempting to reconstitute in 100% PBS. Maximum concentration of compound in solution was 500 μM.
(§8) Compound requirements (1% DMSO in PBS): 30 μL of a 10 mM DMSO solution. Compound requirements (PBS-only): 60 μL of a 10 mM DMSO solution. Equilibration time: 18 hours at room temperature.

Plasma stability, human = assay type: in vitro ADME
Protocol: as §1, §2

physchem = conditions: 23 °C, aqueous buffer, thermodynamic from solid
Protocol: as §6, §7, §8

GSK3 = conditions: cited from earlier work
GSK3β = GSK3β (Homo sapiens (Human), UniProt P49841); experiment: GSK3 beta biochemical assay (TR-FRET); conditions: GSK3β TR-FRET BIOCHEMICAL (TR-FRET) GMean IC50, 2 μM ATP (Km), 100 min at room temperature
Protocol: (§9) 1 nM enzyme, 200 nM biotinylated peptide
(§10) 4 μM ATP (GSK3 alpha) or 2 μM ATP (GSK3 beta)
(§11) The reaction volume is 10 μL, and the final percent DMSO is 1%. The total volume of DMSO is therefore 100 nL. It is critical that the percentage of DMSO be controlled and consistent across the plate. […] The High control is with all assay components but no inhibitor, the low control is with all assay components but no enzyme.
(§12) Make 2× detection reagents in Invitrogen TR-FRET detection buffer for final 20 nM Strepavidin-d2, 1 nM Tb^2+-pSer641 antibody (using 20 μl as final volume). 2× detection=40 nM Strepavidin-d2, 2 nM Tb^2+-pSer641 antibody.
(§13) XLFit is used for results which are archived into a database. The data is normalized as a percentage of uninhibited control minus max inhibited controls.

GSK3α = GSK3α (Homo sapiens (Human), UniProt P49840); experiment: GSK3 alpha biochemical assay (TR-FRET); conditions: GSK3α TR-FRET BIOCHEMICAL (TR-FRET) GMean IC50, 4 μM ATP (Km), 100 min at room temperature
Protocol: as §9, §10, §11, §12, §13

MDR1 = experiment: Additional MDCK permeability (MDR1-MDCK) assay (Example 6); assay type: in vitro ADME; conditions: dog
Text: The MDR1/MDCK assay is run at Absorption Systems. This assay is used to determine the blood-brain barrier (BBB) penetration potential of a test compound using MDR1-MDCK cell monolayers.
Assay System • Confluent monolayers of MDR1-MDCK cells, 7 to 11 days old. Assay Conditions • Receiver well with 1% BSA in modified Hanks buffer (HBSSg) • Apical and basolateral side at pH 7.4 • Dose two monolayers in each direction (N=2) • Dose apical side for (A to B) assessment • Dose basolateral side for (B to A) assessment • Sample both apical and basolateral sides at 120 minutes • Determine the concentrations of test compound using a generic LC-MS/MS method with a minimum 4 point calibration curve. Assay QC • The quality of the cell monolayer batch is verified using control compounds before monolayers are released for use • The quality of each monolayer used in the assay is verified by a TEER measurement and by calculating the Papp for a control compound.

[5] = tested on: oxidative stress-induced neurodegeneration; conditions: cited from earlier work
[6] = tested on: Δ7 SMA KO mouse model of SMA; conditions: transgenic Δ7 SMA KO mouse model; cited from earlier work
[7] = tested on: SMA patient-derived fibroblast cells; conditions: Western blot; cited from earlier work
[8] = mouse plasma, 5 μM, 5 hours at 37° C.
[9] = human plasma, 5 μM, 5 hours at 37° C.

GSK3α, sequence (P49840 whole entry): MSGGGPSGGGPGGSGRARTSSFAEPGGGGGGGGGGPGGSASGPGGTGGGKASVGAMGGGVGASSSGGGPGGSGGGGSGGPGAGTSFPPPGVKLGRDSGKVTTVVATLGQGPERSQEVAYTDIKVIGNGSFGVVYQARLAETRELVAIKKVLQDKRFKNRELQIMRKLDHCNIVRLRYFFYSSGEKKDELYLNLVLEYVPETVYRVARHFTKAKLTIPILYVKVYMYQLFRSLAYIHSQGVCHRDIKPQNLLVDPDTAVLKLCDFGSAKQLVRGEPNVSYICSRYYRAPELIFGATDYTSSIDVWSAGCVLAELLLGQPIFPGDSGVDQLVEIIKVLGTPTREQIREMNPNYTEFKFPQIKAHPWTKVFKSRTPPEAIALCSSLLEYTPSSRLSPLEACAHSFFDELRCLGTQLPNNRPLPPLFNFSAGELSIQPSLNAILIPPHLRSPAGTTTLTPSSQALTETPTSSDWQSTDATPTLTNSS
GSK3β, sequence (P49841 whole entry): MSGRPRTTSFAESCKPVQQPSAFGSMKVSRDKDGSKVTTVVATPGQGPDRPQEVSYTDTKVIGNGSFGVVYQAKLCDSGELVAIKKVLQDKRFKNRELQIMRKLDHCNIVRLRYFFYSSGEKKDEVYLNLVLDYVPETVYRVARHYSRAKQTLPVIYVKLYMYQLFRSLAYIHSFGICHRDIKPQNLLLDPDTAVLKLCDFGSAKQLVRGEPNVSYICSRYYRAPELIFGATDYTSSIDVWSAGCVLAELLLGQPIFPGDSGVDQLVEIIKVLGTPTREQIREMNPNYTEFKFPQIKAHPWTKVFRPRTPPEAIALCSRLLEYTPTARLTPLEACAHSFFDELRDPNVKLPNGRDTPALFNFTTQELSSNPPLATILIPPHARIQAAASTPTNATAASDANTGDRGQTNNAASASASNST

Row | SMILES | Plasma Stability (Mouse, % remaining) (Plasma stability, mouse; [8]) [%] | Mouse Liver Microsomal Stability, % remaining ([1]; 1 μM, 60 minutes at 37° C.) [%] | fraction unbound at 5 h, 5 μM [2] | fraction unbound at 5 h, 5 μM [3] | Human Liver Microsomal Stability, % remaining ([4]; 1 μM, 60 minutes at 37° C.) [%] | solubility thermodynamic at 18 h (Solubility in PBS) [µM] | Plasma Stability (Human, % remaining) (Plasma stability, human; [9]) [%] | also measured
1 | CC[C@@]1(c2cccc(F)c2)C2=C(CC(C)(C)CC2=O)Nc2ncsc21 [drawing 174] | 96.0 | 3.9 | 0.029 | 0.043 | 2.4 | 100 (≈ 35.6 µg/mL) | 99.2 | –
2 | CC1(C)CC(=O)C2=C(C1)Nc1ncsc1[C@]2(C)c1ccccc1 [drawing 172] | 100 | 0.7 | 0.005 | 0.004 | 17.7 | 34 (≈ 11 µg/mL) | 100 | –
3 | CC[C@@]1(c2ccccc2)C2=C(CC(C)(C)CC2=O)Nc2ncsc21 [drawing 173] | 100 | 5.6 | 0.049 | 0.074 | 6.6 | 17 (≈ 5.75 µg/mL) | 100 | –
4 | Cc1c[nH]c(-c2cnc(NCCNc3ccc(C#N)cn3)nc2-c2ccc(Cl)cc2Cl)n1 [drawing 180] | – | – | 0.039 | 0.043 | – | – | – | Plasma Stability (Mouse, % remaining) (Plasma stability, mouse): 97.0%; Mouse Liver Microsomal Stability, % remaining [1]: 4.0%; solubility thermodynamic at 18 h (physchem): 116 µM (≈ 54 µg/mL); Human Liver Microsomal Stability, % remaining [4]: 3.0%; Plasma Stability (Human, % remaining) (Plasma stability, human): 100%
5 | CC[C@@]1(c2cccc(OC)c2)C2=C(CC(C)(C)CC2=O)Nc2ncsc21 | 97.0 | 10.8 | 0.025 | 0.077 | 1.6 | 153 (≈ 56.4 µg/mL) | 98.3 | –
6 | CC[C@@]1(c2cccc(C)c2)C2=C(CC(C)(C)CC2=O)Nc2ncsc21 [drawing 176] | 97.8 | 8.2 | 0.019 | 0.045 | 0.7 | 75 (≈ 26.4 µg/mL) | 98.9 | –
7 | [Li+] [Li^+, Lithium] | – | – | – | – | – | – | – | IC50 (GSK3): 2 mM
8 | CC[C@@]1(c2ccccc2)C2=C(CC(C)(C)CC2=O)Nc2n[nH]cc21 [drawing 179] | 95.3 | 93 | – | 0.212 | 95 | – | – | solubility thermodynamic at 18 h (physchem): 480 µM (≈ 154 µg/mL)
9 | CCC1(c2ccccc2)C2=C(CC(C)(C)CC2=O)Nc2ncsc21 (single isomer, unassigned) [Compound 1-E2, 9-Ethyl-6,6-dimethyl-9-phenyl-5,6,7,9-tetrahydrothiazolo[4,5-b]quinolin-8(4H)-one] | – | – | – | – | – | – | – | IC50 (GSK3β): 190 nM; IC50 (GSK3α): 37 nM; Papp A→B at 120 min, 5 μM (MDR1): 7.67 ×10⁻⁶ cm/s; Papp B→A at 120 min, 5 μM (MDR1): 24.4 ×10⁻⁶ cm/s; efflux ratio at 120 min, 5 μM (MDR1; read-out: MDCK PERMEABILITY (MDR1-MDCK) Mean P. Ratio(B-A/A-B)): 3.2
10 | Cn1cc(C2=C(c3coc4ccccc34)C(=O)NC2=O)c2cc(Br)ccc21 [BIP-135] | – | – | – | – | – | – | – | neuroprotection [5]: neuroprotective; median survival of the mice [6]: prolong the median survival of the mice; SMN protein level [7]: elevate the SMN protein level
11 | CC[C@@]1(c2cccc(Cl)c2)C2=C(CC(C)(C)CC2=O)Nc2ncsc21 | 98.1 | 11.1 | 0.018 | 0.023 | 0.0 | 37 (≈ 13.8 µg/mL) | 98.7 | –
